Each structure is given as a SMILES string. Active and inactive are the calls of the source. The rule behind the calls is not given here.

The subject of experiment [1] is DNA. Put plainly: Binding affinity to calf thymus DNA at 10 uM incubated for 60 mins under dark condition by fluorescence emission spectra analysis. The note with it: Bos taurus. Type of experiment: nucleic-acid assay.
Experiment [2] relates to DNA. As to the kind of experiment: Binding affinity to calf thymus DNA at 10 uM after 60 mins by UV-visible absorption spectra analysis. Format: nucleic-acid assay. To be noted: Bos taurus.
Experiment [3] concerns DNA. Put plainly: Binding affinity to calf thymus DNA at 10 uM using sequential DNA addition followed by 15 mins incubation under dark condition by UV-visible spectroscopy. Type of experiment: nucleic-acid assay. The note with it: Bos taurus.
Experiment [4] deals with Escherichia coli. Put plainly: Induction of Escherichia coli pUC19 DNA photocleavage assessed as conversion of supercoiled DNA to linear and nicked form of DNA after 60 mins followed by irradiation at 575 nm for 60 mins by agarose gel electrophoresis.
The test system of experiment [5] is Escherichia coli. As to the kind of experiment: Induction of Escherichia coli pUC19 DNA photocleavage at 10 uM treated for 60 mins followed by irradiation at 575 nm for 60 mins by agarose gel electrophoresis in presence of sodium benzoate.
Experiment [6] has as its system Escherichia coli. As to the kind of experiment: Induction of Escherichia coli pUC19 DNA photocleavage at 10 uM treated for 60 mins followed by irradiation at 575 nm for 60 mins by agarose gel electrophoresis in presence of sodium azide.
Experiment [7] concerns Escherichia coli. Put plainly: Induction of Escherichia coli pUC19 DNA photocleavage assessed as conversion of supercoiled DNA to linear and nicked form of DNA at 10 uM treated for 60 mins followed by irradiation at 700 nm for 60 mins by agarose gel electrophoresis (reference value: 3%).
In experiment [8] the test system is Escherichia coli. As to the kind of experiment: Induction of Escherichia coli pUC19 DNA photocleavage assessed as conversion of supercoiled DNA to linear and nicked form of DNA at 10 uM treated for 60 mins followed by irradiation at 623 nm for 60 mins by agarose gel electrophoresis (reference value: 10%).
Experiment [9] concerns Escherichia coli. As to the kind of experiment: Induction of Escherichia coli pUC19 DNA photocleavage assessed as conversion of supercoiled DNA to linear and nicked form of DNA at 10 uM treated for 60 mins followed by irradiation at 588 nm for 60 mins by agarose gel electrophoresis (reference value: 15%).
Experiment [10] concerns Escherichia coli. Put plainly: Induction of Escherichia coli pUC19 DNA cleavage assessed as conversion of supercoiled DNA to linear and nicked form of DNA at 10 uM after 60 mins by agarose gel electrophoresis.
The subject of experiment [11] is Escherichia coli. As to the kind of experiment: Induction of Escherichia coli pUC19 DNA photocleavage assessed as conversion of supercoiled DNA to linear and nicked form of DNA at 10 uM treated for 60 mins followed by irradiation at 575 nm for 60 mins by agarose gel electrophoresis (reference value: 6 +/- 2%).

Regarding `CC1(C)C(/C=C/C(Br)=C/C=C2/N(CCC[N+](C)(C)C)c3ccc4ccccc4c3C2(C)C)=[N+](CCC[N+](C)(C)C)c2ccc3ccccc3c21`, the result in experiment [1], in [2] and in [3] was Active. The Activity entry in [4] is “Dose-dependent effect”; in experiment [7], 59%; in [8], 56%; in experiment [9], 47%; in experiment [10], 7%; in experiment [11] it was 78%. Also, the outcome in [5] and in [6] was inactive.
In the case of `CN1/C(=C/C=C(Cl)/C=C/C2=[N+](C)c3ccc4ccccc4c3C2(C)C)C(C)(C)c2c1ccc1ccccc21`, the result in experiment [1], in [2] and in experiment [3] was Active. The Activity result in [4] was “Dose-dependent effect”; in [7], 33%; in experiment [8] it was 42%; in experiment [9] it was 46%; in experiment [10], 2%; in experiment [11], 83%. Besides, the outcome in experiment [5] and in experiment [6] was inactive.
For `CC1(C)C(/C=C/C(Cl)=C/C=C2/N(CCC[N+](C)(C)C)c3ccc4ccccc4c3C2(C)C)=[N+](CCC[N+](C)(C)C)c2ccc3ccccc3c21`, the outcome in experiment [1], in experiment [2] and in experiment [3] was Active. Besides, the Activity result is “Dose-dependent effect” in experiment [4]; 67% in experiment [7]; 48% in [8]; 55% in experiment [9]; 5% in [10]; 91% in experiment [11]. Also, the result in experiment [5] and in experiment [6] was inactive.
As to `CC1(C)C(/C=C/C=C/C=C2/N(CCC[N+](C)(C)C)c3ccc4ccccc4c3C2(C)C)=[N+](CCC[N+](C)(C)C)c2ccc3ccccc3c21`, the result in [1], in [2] and in experiment [3] was Active. In addition, the outcome in experiment [5] and in experiment [6] was inactive. Moreover, the Activity in experiment [7] is 34%; in experiment [8] it was 41%; in experiment [9], 20%; in experiment [10] it was 1%; in [11] it was 47%.
Regarding `CN1/C(=C/C=C/C=C/C2=[N+](C)c3ccc4ccccc4c3C2(C)C)C(C)(C)c2c1ccc1ccccc21`, the outcome in experiment [1], in experiment [2] and in experiment [3] was Active. For the same compound, the outcome in experiment [5] and in experiment [6] was inactive. Also, the Activity in experiment [7] was 18%; in experiment [8] it was 29%; in experiment [9], 25%; in experiment [10] it was 2%; in [11], 59%.
`CN1/C(=C/C=C(Br)/C=C/C2=[N+](C)c3ccc4ccccc4c3C2(C)C)C(C)(C)c2c1ccc1ccccc21`: the result in [1], in experiment [2] and in [3] was Active. The Activity result in [4] was “Dose-dependent effect”; in experiment [7], 49%; in [8], 46%; in experiment [9], 55%; in experiment [10] it was 3%; in [11], 86%. Further, the result in experiment [5] and in experiment [6] was inactive.
On to `CC1(C)C(/C=C/C(Cl)=C/C=C2/N(CCCc3ccccc3)c3ccc4ccccc4c3C2(C)C)=[N+](CCCc2ccccc2)c2ccc3ccccc3c21`, for which, in [1], the result was Active. For the same compound, the Activity in [7] was 2%; in experiment [8], 8%; in experiment [9], 13%; in experiment [10], 4%; in experiment [11], 13%.
